Reference: PMC9160031, “Identification of HMGCR as the anticancer target of physapubenolide against melanoma cells by in silico target prediction” (Acta Pharmacologica Sinica, 2021)

Molecular target: T1, 3-hydroxy-methylglutaryl CoA reductase (HMGCR) (Homo sapiens, UniProt P04035)
T1 sequence (P04035 1-888): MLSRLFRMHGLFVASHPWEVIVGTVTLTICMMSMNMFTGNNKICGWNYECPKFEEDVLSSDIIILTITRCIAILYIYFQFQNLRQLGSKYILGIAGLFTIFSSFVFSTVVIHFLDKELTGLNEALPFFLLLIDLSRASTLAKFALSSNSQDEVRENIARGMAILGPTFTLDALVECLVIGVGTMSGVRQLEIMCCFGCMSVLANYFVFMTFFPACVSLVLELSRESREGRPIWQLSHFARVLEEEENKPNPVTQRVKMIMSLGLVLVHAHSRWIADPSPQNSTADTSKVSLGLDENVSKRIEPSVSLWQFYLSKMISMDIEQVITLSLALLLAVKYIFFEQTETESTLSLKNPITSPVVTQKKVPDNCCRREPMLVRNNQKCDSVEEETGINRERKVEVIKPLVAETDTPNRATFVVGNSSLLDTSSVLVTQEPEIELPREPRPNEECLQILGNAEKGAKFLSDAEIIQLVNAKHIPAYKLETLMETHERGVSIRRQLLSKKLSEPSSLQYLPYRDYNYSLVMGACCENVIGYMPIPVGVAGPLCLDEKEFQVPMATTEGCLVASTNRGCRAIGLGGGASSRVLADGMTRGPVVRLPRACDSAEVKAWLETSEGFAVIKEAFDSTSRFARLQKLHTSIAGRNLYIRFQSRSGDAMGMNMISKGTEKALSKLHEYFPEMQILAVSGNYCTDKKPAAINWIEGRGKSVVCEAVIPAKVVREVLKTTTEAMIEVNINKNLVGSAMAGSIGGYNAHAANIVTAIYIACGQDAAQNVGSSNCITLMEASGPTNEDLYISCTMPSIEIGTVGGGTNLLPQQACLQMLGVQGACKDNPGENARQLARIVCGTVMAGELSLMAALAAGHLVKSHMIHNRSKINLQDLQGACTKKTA
Assay: SPR direct binding assay (PB listed as stationary phase)

CC(=O)O[C@H]1CC([C@H](C)C2CC(C)=C(C)C(=O)O2)[C@@]2(C)CCC3C(C[C@H]4O[C@]45[C@@H](O)C=CC(=O)[C@]35C)[C@]12O (stereo partly shown) [PB, Physapubenolide]
Kd: 1460 nM
